Among the data in ChEMBL document CHEMBL1139666, “Discovery and synthesis of a novel series of quinoline-based thrombin receptor (PAR-1) antagonists” (Bioorg Med Chem Lett, 2006) are IC50, inhibition and AUC(0-t) values, retold here.

Data set [1] addresses T1, Proteinase-activated receptor 1 (Homo sapiens, UniProt P25116).
T1 sequence (P25116 whole entry): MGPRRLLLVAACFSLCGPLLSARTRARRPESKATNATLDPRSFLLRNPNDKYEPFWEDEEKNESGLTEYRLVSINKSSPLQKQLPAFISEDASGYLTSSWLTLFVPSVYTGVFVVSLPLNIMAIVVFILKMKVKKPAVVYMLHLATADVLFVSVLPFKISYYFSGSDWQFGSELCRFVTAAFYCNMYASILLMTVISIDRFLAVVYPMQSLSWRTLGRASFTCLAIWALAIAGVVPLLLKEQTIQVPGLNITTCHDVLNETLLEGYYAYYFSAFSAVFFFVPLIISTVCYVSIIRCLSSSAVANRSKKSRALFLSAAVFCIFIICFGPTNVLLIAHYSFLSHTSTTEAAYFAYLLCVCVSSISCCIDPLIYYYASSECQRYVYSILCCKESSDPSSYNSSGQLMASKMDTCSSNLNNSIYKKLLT
The experiment in a line: Displacement of [3H]haTRAP from PAR1 in human platelet membrane. The data set is classed as cell membranes.

Data set [2] has as its target T1, Proteinase-activated receptor 1. The data set is described as follows: Displacement of [3H]haTRAP from PAR1 in human platelet membrane at […]. The data set is classed as cell membranes. A general note: In a radioligand displacement assay an active substance lowers the binding of a labelled ligand.
The subject of data set [3] is Cynomolgus monkey. The experiment in a line: Inhibition of platelet aggregation in orally dosed cynomolgus monkey. The settings on record: Macaca fascicularis. It is filed as functional, organism-based.
The nature of data set [4]: AUC(0-4h) in cynomolgus monkey at 10 mg/kg. The data set is classed as ADME, organism-based, Macaca fascicularis. Details: time < 5 hr, dose 10 mg/kg. The settings on record: plasma.
For data set [5], the system named is Cynomolgus monkey. The experiment in a line: Inhibition of platelet aggregation in cynomolgus monkey 2 hrs post dose iv. It is filed as functional, organism-based. The settings on record: Macaca fascicularis.

The source made the active and inactive calls. The rule behind the calls is not given here.

What is called IC50 is the point on the concentration scale where inhibition reaches its midpoint. As for `CCC(=O)Nc1ccc2nc(/C=C/[C@H]3[C@@H]4CCCC[C@H]4C[C@H]4C(=O)O[C@H](C)[C@@H]34)ccc2c1`, the IC50 in data set [1] came out at 68 nM.

In data set [1], `C[C@H]1OC(=O)[C@@H]2C[C@@H]3CCCC[C@H]3[C@H](/C=C/c3ccc4cc(-c5cccc(C(F)(F)F)c5)ccc4n3)[C@H]12` yielded an IC50 of 300 nM.

Take `C[C@H]1OC(=O)[C@@H]2C[C@@H]3CCCC[C@H]3[C@H](/C=C/c3ccc4cc(OC(F)(F)F)ccc4n3)[C@H]12`: the IC50 result in data set [2] is reported as “Not Active”.

As to `C[C@H]1OC(=O)[C@@H]2C[C@@H]3CCCC[C@H]3[C@H](/C=C/c3cc(OCc4ccccc4)c4ccccc4n3)[C@H]12` (racemic), the IC50 entry in data set [2] is “Not Active”.

`Cc1ccc2ccc(/C=C/[C@H]3[C@@H]4CCCC[C@H]4C[C@H]4C(=O)O[C@H](C)[C@@H]34)nc2c1` (racemic) showed an IC50 in data set [1] of 150 nM.

`C[C@H]1OC(=O)[C@@H]2C[C@@H]3CCCC[C@H]3[C@H](/C=C/c3ccc4cc(OCCNC(=O)OC(C)(C)C)ccc4n3)[C@H]12` (racemic) gave an IC50 in data set [1] of 275 nM.

Take `COc1cccc2ccc(/C=C/[C@H]3[C@@H]4CCCC[C@H]4C[C@H]4C(=O)O[C@H](C)[C@@H]34)nc12` (racemic): the IC50 in data set [1] is 700 nM.

On to `COc1cc(/C=C/[C@H]2[C@@H]3CCCC[C@H]3C[C@H]3C(=O)O[C@H](C)[C@@H]23)nc2ccccc12` (racemic), for which the IC50 entry in data set [2] is on record as “Not Active”.

As to `C[C@H]1OC(=O)[C@@H]2C[C@@H]3CCCC[C@H]3[C@H](/C=C/c3ccc4cc(OCC(=O)NC5CC5)ccc4n3)[C@H]12`, the IC50 in data set [1] was determined as 290 nM.

On to `CCCC(=O)Nc1ccc2nc(/C=C/[C@H]3[C@@H]4CCCC[C@H]4C[C@H]4C(=O)O[C@H](C)[C@@H]34)ccc2c1`, for which the IC50 in data set [1] worked out at 28 nM.

Regarding `C[C@H]1OC(=O)[C@@H]2C[C@@H]3CCCC[C@H]3[C@H](/C=C/c3ccc4cc(NC(=O)c5ccccc5)ccc4n3)[C@H]12`, the IC50 in data set [1] worked out at 219 nM.

In the case of `CCOc1ccc2nc(/C=C/[C@H]3[C@@H]4CCCC[C@H]4C[C@H]4C(=O)O[C@H](C)[C@@H]34)ccc2c1` (racemic), the concentration for half-maximal inhibition (IC50) in data set [1] worked out at 125 nM.

The term AUC(0-t) denotes the area under the concentration-time curve up to a stated or last time point. For the compound `C[C@H]1OC(=O)[C@@H]2C[C@@H]3CCCC[C@H]3[C@H](/C=C/c3ccc4cc(OCC(=O)O)ccc4n3)[C@H]12`, in data set [3], the inhibition entry was “inactive”. The compound also showed an IC50 in data set [1] of 29 nM. Also, in data set [4], the AUC(0-t) at 5 h is 17 ng·h/mL. Further, the inhibition result in data set [5] is “Active”.

In data set [1], `C[C@H]1OC(=O)[C@@H]2C[C@@H]3CCCC[C@H]3[C@H](/C=C/c3ccc4cc(N)ccc4n3)[C@H]12` gave an IC50 of 30 nM.

As for `C[C@H]1OC(=O)[C@@H]2C[C@@H]3CCCC[C@H]3[C@H](/C=C/c3ccc4cc(OCc5ccccc5)ccc4n3)[C@H]12`, in data set [1], the IC50 came out at 1250 nM.

Take `C[C@H]1OC(=O)[C@@H]2C[C@@H]3CCCC[C@H]3[C@H](/C=C/c3ccc4cc(NC(=O)C(C)(C)C)ccc4n3)[C@H]12`: the IC50 in data set [1] worked out at 2150 nM.

As to `C[C@H]1OC(=O)[C@@H]2C[C@@H]3CCCC[C@H]3[C@H](/C=C/c3ccc4cc(O)ccc4n3)[C@H]12`, in data set [1], the half-maximal inhibitory concentration (IC50) amounted to 6.3 nM. The AUC(0-t) at 5 h in data set [4] amounted to 826 ng·h/mL.

Consider `C[C@H]1OC(=O)[C@@H]2C[C@@H]3CCCC[C@H]3[C@H](/C=C/c3ccc4cc(OCC(N)=O)ccc4n3)[C@H]12`, for which, in data set [1], the IC50 is 1000 nM.

Consider `C[C@H]1OC(=O)[C@@H]2C[C@@H]3CCCC[C@H]3[C@H](/C=C/c3ccc4cc(OCC(=O)Nc5ccccc5)ccc4n3)[C@H]12`, for which, in data set [1], the IC50 amounted to 25 nM.

`C[C@H]1OC(=O)[C@@H]2C[C@@H]3CCCC[C@H]3[C@H](/C=C/c3ccc4cc(OC(C)(C)C(=O)Nc5ccccc5)ccc4n3)[C@H]12` registered an IC50 in data set [1] of 500 nM.

Take `C[C@H]1OC(=O)[C@@H]2C[C@@H]3CCCC[C@H]3[C@H](/C=C/c3ccc4cc(OCCN)ccc4n3)[C@H]12` (racemic): the IC50 entry in data set [2] was “Not Active”.

In data set [1], `C[C@H]1OC(=O)[C@@H]2C[C@@H]3CCCC[C@H]3[C@H](/C=C/c3ccc4cc(-c5ccsc5)ccc4n3)[C@H]12` displayed a 50% inhibitory concentration (IC50) of 50 nM.

With `COc1ccc2nc(/C=C/[C@H]3[C@@H]4CCCC[C@H]4C[C@H]4C(=O)O[C@H](C)[C@@H]34)ccc2c1Cl` (racemic), the IC50 in data set [1] turned out to be 800 nM.

`COc1ccc2nc(/C=C/[C@H]3[C@@H]4CCCC[C@H]4C[C@H]4C(=O)O[C@H](C)[C@@H]34)ccc2c1OC` showed an IC50 in data set [1] of 50 nM.

Consider `C[C@H]1OC(=O)[C@@H]2C[C@@H]3CCCC[C@H]3[C@H](/C=C/c3ccc4cc(F)ccc4n3)[C@H]12` (racemic), for which the IC50 in data set [1] turned out to be 730 nM.

For `Cc1cccc2ccc(/C=C/[C@H]3[C@@H]4CCCC[C@H]4C[C@H]4C(=O)O[C@H](C)[C@@H]34)nc12` (racemic), the IC50 in data set [1] came to 390 nM.

`CC(=O)Nc1ccc2nc(/C=C/[C@H]3[C@@H]4CCCC[C@H]4C[C@H]4C(=O)O[C@H](C)[C@@H]34)ccc2c1`: the IC50 in data set [1] amounted to 100 nM.

For the compound `C[C@H]1OC(=O)[C@@H]2C[C@@H]3CCCC[C@H]3[C@H](/C=C/c3ccc4cc(Cl)ccc4n3)[C@H]12` (racemic), the IC50 in data set [1] worked out at 155 nM.

In data set [1], `C[C@H]1OC(=O)[C@@H]2C[C@@H]3CCCC[C@H]3[C@H](/C=C/c3ccc4cc(OCC(=O)N5CCOCC5)ccc4n3)[C@H]12` showed an IC50 of 500 nM.

The compound `C[C@H]1OC(=O)[C@@H]2C[C@@H]3CCCC[C@H]3[C@H](/C=C/c3ccc4cc(-c5cccs5)ccc4n3)[C@H]12` showed an IC50 in data set [1] of 300 nM.

Take `C[C@H]1OC(=O)[C@@H]2C[C@@H]3CCCC[C@H]3[C@H](/C=C/c3ccc4cc(OC(C)(C)C(N)=O)ccc4n3)[C@H]12`: the IC50 in data set [1] came to 800 nM.
